Experimental data taken from patent publication US20170153225A1, “A METHOD OF SCREENING FOR A COMPOUND CAPABLE OF STIMULATING GLUCOSE TRANSPORT INTO BROWN AND/OR BRITE ADIPOCYTES OF A MAMMAL, A KIT FOR USE IN SUCH A METHOD” (ATROGI AB, priority 2014, published 2017).

How the values were obtained:
[1] = test system: mature brown adipocytes primary cultures; assay: 2-deoxy-D-[1-3H]-glucose uptake in vitro in mature primary brown adipocytes; format: cell-based, NMRI mice; conditions: for glucose uptake: isoproterenol 1 μM, 2 hours, p=0.0042, n=4-6
Experimental: Brown fat primary cells were isolated from NMRI mice (3-4 week-old) purchased from Nova-SCB AB, Sweden. All experiments were conducted with ethical permission (N388/12) from the North Stockholm Animal Ethics Committee. Animals were euthanized by CO2, and brown fat precursor cells were isolated from the intrascapular, axillary and cervical brown adipocyte depots as previously described (Hutchinson, Bengtsson 2006, Hutchinson, Chernogubova et al. 2006). The tissue was minced and transferred to a HEPES-buffered solution (pH 7.4) containing 0.2% (wt/vol) crude collagenase type II. Routinely, tissue from 6 mice was digested in 10 ml of the HEPES-buffered solution. The tissue was digested for 30 minutes at 37° C., with constant vortexing. The digest was filtered through a 250 μm filter and the solution incubated on ice for 15 min to allow the mature adipocytes and fat droplets to float. The infranatant was filtered through a 25 μm filter, centrifuged (10 min, 700×g), the pellet resuspended in DMEM (4.5 g D-glucose/l) and recentrifuged. The pellet was finally resuspended in 0.5 ml cell culture medium per mouse dissected. The cell culture medium consisted of DMEM (4.5 g D-glucose/l) supplemented with 10% newborn calf serum, 2.4 nM insulin, […], 50 IU/ml penicillin, 50 μg/ml streptomycin and 25 μg/ml sodium ascorbate. Aliquots of 0.1 ml cell suspension were cultured in 12-well culture dishes with 0.9 ml of cell culture medium. Cultures were incubated in a 37° C. humidified atmosphere of 8% CO2 in air. On days 1, 3 and 5, the cell culture medium was renewed. Cells were used on day 7.
Glucose uptake in vitro was performed as previously described (Yamamoto, Hutchinson et al. 2007). On day 7 the cells were treated with inhibitors for 30 min before addition of isoproterenol for 2 hours, unless otherwise indicated. […] Reactions were terminated by washing in ice-cold PBS, cells lysed (400 μl of 0.2 M NaOH, 1 h at 60° C.) and the incorporated radioactivity determined by liquid scintillation counting.

BAT = assay: Glucose uptake in brown fat (BAT) in vivo, [3H]-2DG; parameters: species or system FVB mice; conditions: n=5
Experimental: Groups of FVB mice were fasted for 5 hours prior to study and anesthetized with pentobarbital (60 mg per kg of body weight, i.p.). Mice were then injected with a specific mTOR inhibitor KU 0063794 (10 mg/kg i.p.) or DMSO as control. Isoproterenol (1 mg/kg ip) or saline were injected after 10 min and [^3H]-2DG (130 μCi/kg body weight ip) 20 min prior to end time. BAT was dissected […], and tissues digested with 0.5M NaOH overnight. Glucose uptake was measured by liquid scintillation counting. All experiments were conducted with ethical permission (N388/12) from the North Stockholm Animal Ethics Committee.

GLUT1 [2] = assay: Western blot of total GLUT1 protein content; format: cell-based, NMRI mice; conditions: isoproterenol 1 μM, 0-2 h; for total GLUT1 protein content (Western blot): in presence or absence of 1 μM KU 0063794, p=0.0067 and p=0.0017, n=3
Experimental: Brown adipocytes were grown as described in Example 1 and differentiated in 12 well plates and serum starved the night prior to experiment. On day 7 the cells were challenged with inhibitors for 30 min before being stimulated with drugs as indicated. Lysates were prepared in prewarmed (65° C.) sample buffer (62.5 mM Tris pH 6.8, 2% SDS, 10% glycerol, 50 mM dithiothreitol, 0.1% bromophenol blue) and boiled for 5 min. Samples were loaded on a 8 or 12% acrylamide gel and separated for 2 hours at 100 V. Proteins were transferred to Hybond-P polyvinylidene difluoride membranes (pore size […]; Amersham Biosciences, Arlington Heights, Ill.). The primary GLUT1 antibody (diluted 1:1000) was from AbCam (Cambridge, UK). The primary antibody was detected using a secondary antibody (horseradish peroxidase-linked anti-rabbit IgG, Cell Signaling) diluted 1:2000 and enhanced chemiluminescence (ECL, Amersham Biosciences). Images were quantified using Image J 1.46r. […] Western blot of GLUT1 protein content in mature brown adipocytes was quantified after isoproterenol stimulation (1 μM, 0-2 h) in presence or absence of 1 μM KU 0063794.

GLUT1 [3] = assay: Immunocytochemistry of total cellular GLUT1 in permeabilized cells; format: cell-based, NMRI mice; conditions: isoproterenol 1 μM, 2 h
Experimental: (§1) Brown adipocytes were isolated as described in Example 1 and seeded onto BD Falcon culture chamber slides (BD Biosciences, Franklin Lakes, N.J.). Cells were serum starved the night prior to experiment. On day 7 the cells were challenged with inhibitors for 30 min before being stimulated for 1-2 hours with drugs as indicated. Cells were washed with warm PBS and fixed for 15 min (4% formaldehyde in PBS). Cells were washed with PBS and formaldehyde quenched with 50 mM glycine in PBS, and washed three times for 5 min each with PBS. Cells were blocked for 1 h at room temperature with 8% BSA in PBS, and washed three times for 5 min each with PBS. For permeabilizing the cells, the cells were treated with 10% triton x in PBS (dilution 1:40) before blocking. Primary antibody (2 μg/ml GLUT1 antibody (AbCam, Cambridge, UK), 1.5% BSA in PBS) was added and slides incubated over night at 4° C. The next day the cells were washed three times for 5 min each with PBS. Slides were then incubated with secondary antibody (3 μg/ml alexa488 conjugated goat antirabbit IgG (Invitrogen, Paisley, UK), 3% BSA in PBS) and washed three times for 5 min each with PBS. Slides were mounted with mounting media (8% 1,4-diazabicyclooctane, 75% glycerol in PBS) and sealed.

mTOR = mTOR phosphorylation at Ser2481 and Ser2448 by western blot; format: cell-based; conditions: 1 μM isoprenaline, 2 hours
Description: The immunoblot is representative of three experiments performed.

GLUT1 [4] = assay: Immunocytochemistry of plasma membrane GLUT1 (translocation) in non-permeabilized cells; format: cell-based, NMRI mice; conditions: KU 0063794 1 μM, isoproterenol 1 μM, 2 h, p=0.0153, n=3
Experimental: as §1

mouse rictor = assay: Rictor knock down with siRNA, then glucose uptake or western blotting; format: cell-based; conditions: 2.5 μg/ml siRNA
Experimental: Primary brown adipocytes were used on day 3 and transfected with K2 Transfection System (Biontex laboratories) according to manufacturer's protocol using 2.5 μg/ml of siRNA (sequence: […]) directed against mouse rictor (from Sigma). 24 h after transfection, glucose uptake or western blotting was performed as described above.

Compound: CC(C)NCC(O)c1ccc(O)c(O)c1 (centres unmarked) [Isoproterenol]
- glucose uptake [1]: increase glucose uptake
- glucose uptake ([1]; listed as isoproterenol): increases glucose uptake
- glucose uptake in brown fat in vivo (BAT; isoproterenol 1 mg/kg ip): stimulated glucose uptake in vivo
- total GLUT1 protein content (Western blot) (GLUT1 [2]): significantly increase the amount of GLUT1
- total GLUT1 protein content (Western blot) (GLUT1 [2]; listed as isoproterenol): increased total GLUT1 content
- total cellular GLUT1 (de novo synthesis), permeabilized cells (GLUT1 [3]; p=0.0334, n=3): de novo synthesis can be stimulated
- mTOR phosphorylation at Ser2448 (mTOR): not at Ser2448

Compound: COc1ccc(-c2ccc3c(N4CCOCC4)nc(N4C[C@@H](C)O[C@@H](C)C4)nc3n2)cc1CO [KU 0063794]
- reduction of isoproterenol stimulated glucose uptake in vivo (BAT; KU 0063794 before isoproterenol 1 mg/kg ip, p=0.0175): significantly reduced
- effect of mTOR inhibitor on isoproterenol-increased GLUT1 content (Western blot) (GLUT1 [2]; KU 0063794 1 μM): mTOR independent manner
- effect of mTOR inhibitor on stimulated de novo synthesis of GLUT1, permeabilized cells (GLUT1 [3]; KU 0063794 1 μM): not inhibited by inhibition of mTOR
- inhibition of isoproterenol-stimulated translocation of GLUT1 to the plasma membrane (GLUT1 [4]): prevents the translocation of GLUT1 to the plasma membrane

Compound: CCC(=O)N1CCN(c2ccc(-n3c(=O)ccc4cnc5ccc(-c6cnc7ccccc7c6)cc5c43)cc2C(F)(F)F)CC1 [Torin-1]
- inhibition of isoproterenol stimulated glucose uptake ([1]; Torin-1 1 μM, 30 min before isoproterenol 1 μM): full inhibition of glucose uptake

Compound: siRNA directed against mouse rictor: siRNA (sequence: CAGAAAGCAATCGCAACTCACCACA) directed against mouse rictor (from Sigma) (chemistry not given here)
- inhibition of isoproterenol (GPCR) stimulated glucose uptake by rictor knock down (mouse rictor; 24 h after transfection, p=0.0105, n=3): fully inhibited
- rictor protein after knock down (mouse rictor; K2 transfection system): reduction of rictor protein
